# Reference: patent US6723841B2, “Corticotropin-releasing factor2 receptors” (priority 1994, dated 2004)
# Ends that are not written are not given here.
# Experiments:
# Assay type in all cases: cell-based
# [1] = system: human CRF2α receptor; experiment: cAMP assay (adenylate cyclase stimulation) in cells transfected with CRF2α receptor; details: cAMP production, read-out: effective concentration of one-half maximal adenylate cyclase stimulation (EC50), human CRF2α receptor
# Procedure: (§1) For agonist testing, compounds are added to wells with buffer only in order to identify compounds with intrinsic activity. […] Compounds are then assessed for their ability to inhibit the CRF-stimulated cAMP production in the transfected cells. Briefly, cells are plated and grown in DMEM containing 10% fetal bovine serum for 2-4 days in 24-well plates at 37° C. On the day of assay, the medium is removed by vacuum aspiration and 100 μl of DMEM, 10 mM MgCl2, 1 mM isobutylmethylxanthine (a phosphodiesterase inhibitor to inhibit the breakdown of cAMP produced) and 0.1% BSA (pH 7.2) are added to each well. CRF, related peptides and organic test molecules are added to individual wells. The plates are incubated at 37° C. for a period of 1 hour. Following incubation, the wells are aspirated, rinsed once with PBS and aspirated again. 300 μl of 95% Ethanol and 20 mM HCl (EtOH/HCl) are then added to each well and the plates incubated at −20° C. overnight to extract the produced cAMP. The EtOH/HCl is removed, placed in 1.5 ml polypropylene eppendorf tubes and the wells washed with an additional 200 μl of EtOH/HCl and pooled with the initial sample. All samples are dried in a Speed-Vac (Savant Instruments, Farmingdale N.Y.) and either stored at −20° C. until use or reconstituted with 500 μl of sodium acetate buffer pH 7.5 and assayed immediately for cAMP concentration using a radioimmunoassay kit from Biomedical Technologies Inc. (Stoughton Mass.) according to manufacturers instructions.
# The above results have been formulated below in Table I, wherein the effective concentration of one-half maximal adenylate cyclase stimulation (EC50) are presented.
# [2] = molecular target: T1, rat CRF2β receptor (Rattus norvegicus, UniProt P47866); experiment: cAMP assay (adenylate cyclase stimulation) in cells transfected with CRF2β receptor; details: cAMP production, read-out: effective concentration of one-half maximal adenylate cyclase stimulation (EC50), rat CRF2β receptor
# T1 construct: A full-length CRF2 receptor clone in pBluescriptSK- is isolated from the phage clone described above; expressed in transfected cells; host or cells: COS-7
# Procedure: (§2) For agonist testing, compounds are added to wells with buffer only in order to identify compounds with intrinsic activity. […] Briefly, cells are plated and grown in DMEM containing 10% fetal bovine serum for 2-4 days in 24-well plates at 37° C. On the day of assay, the medium is removed by vacuum aspiration and 100 μl of DMEM, 10 mM MgCl2, 1 mM isobutylmethylxanthine (a phosphodiesterase inhibitor to inhibit the breakdown of cAMP produced) and 0.1% BSA (pH 7.2) are added to each well. […] The plates are incubated at 37° C. for a period of 1 hour. Following incubation, the wells are aspirated, rinsed once with PBS and aspirated again. 300 μl of 95% Ethanol and 20 mM HCl (EtOH/HCl) are then added to each well and the plates incubated at −20° C. overnight to extract the produced cAMP. The EtOH/HCl is removed, placed in 1.5 ml polypropylene eppendorf tubes and the wells washed with an additional 200 μl of EtOH/HCl and pooled with the initial sample. All samples are dried in a Speed-Vac (Savant Instruments, Farmingdale N.Y.) and either stored at −20° C. until use or reconstituted with 500 μl of sodium acetate buffer pH 7.5 and assayed immediately for cAMP concentration using a radioimmunoassay kit from Biomedical Technologies Inc. (Stoughton Mass.) according to manufacturers instructions.
# [3] = molecular target: T2, rat CRF2α receptor (Rattus norvegicus, UniProt P47866); experiment: cAMP accumulation in cells transfected with rat CRF2α receptor (FIG. 4)
# T2 construct: A full-length CRF2 receptor clone in pBluescriptSK- is isolated from the phage clone described above; expressed in transfected cells; host or cells: COS-7
# Procedure: as §1, with “All samples are dried in a Speed-Vac (Savant Instruments, Farmingdale N.Y.) and either stored at −20° C. until use or reconstituted with 500 μl of sodium acetate buffer pH 7.5 and assayed immediately for cAMP concentration using a radioimmunoassay kit from Biomedical Technologies Inc. (Stoughton Mass.) according to manufacturers instructions.” left out
# In FIG. 4, the rat CRF2α receptor has been transfected into cells and cAMP accumulation is measured in response to the same drugs as shown in FIG. 3. […]
# [4] = molecular target: T3, human CRF1 receptor (Homo sapiens, UniProt P34998); experiment: cAMP assay (adenylate cyclase stimulation) in cells transfected with CRF1 receptor; details: for EC50: transfected cells, cAMP production, read-out: effective concentration of one-half maximal adenylate cyclase stimulation (EC50), human CRF1 receptor; for cAMP accumulation in cells transfected with the CRF1 receptor: FIG. 3
# T3 construct: expressed in transfected cells
# T3 sequence (P34998 24-415): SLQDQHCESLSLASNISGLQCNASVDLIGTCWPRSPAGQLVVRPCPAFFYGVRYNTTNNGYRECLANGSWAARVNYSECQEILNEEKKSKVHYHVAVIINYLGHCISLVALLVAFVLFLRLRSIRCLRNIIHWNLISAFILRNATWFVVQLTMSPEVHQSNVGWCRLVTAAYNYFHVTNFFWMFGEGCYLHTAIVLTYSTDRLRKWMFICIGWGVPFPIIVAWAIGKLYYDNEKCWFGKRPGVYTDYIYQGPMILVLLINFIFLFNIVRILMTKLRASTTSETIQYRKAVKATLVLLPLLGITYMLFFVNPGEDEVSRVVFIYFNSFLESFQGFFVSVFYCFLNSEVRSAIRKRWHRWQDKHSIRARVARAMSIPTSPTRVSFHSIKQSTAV
# Procedure: as §2
# T2 sequence (P47866 whole entry): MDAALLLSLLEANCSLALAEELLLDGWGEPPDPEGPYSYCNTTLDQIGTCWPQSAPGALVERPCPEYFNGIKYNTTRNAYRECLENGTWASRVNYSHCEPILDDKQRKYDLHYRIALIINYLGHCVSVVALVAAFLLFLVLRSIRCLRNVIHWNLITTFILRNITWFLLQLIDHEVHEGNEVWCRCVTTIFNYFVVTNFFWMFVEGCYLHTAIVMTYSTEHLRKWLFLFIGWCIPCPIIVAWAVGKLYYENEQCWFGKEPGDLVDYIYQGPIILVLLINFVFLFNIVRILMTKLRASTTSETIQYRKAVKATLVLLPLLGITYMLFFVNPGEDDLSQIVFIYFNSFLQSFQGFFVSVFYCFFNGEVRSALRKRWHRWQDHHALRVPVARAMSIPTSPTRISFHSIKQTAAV
# T1 sequence (P47866 1-431 isoform P47866-2): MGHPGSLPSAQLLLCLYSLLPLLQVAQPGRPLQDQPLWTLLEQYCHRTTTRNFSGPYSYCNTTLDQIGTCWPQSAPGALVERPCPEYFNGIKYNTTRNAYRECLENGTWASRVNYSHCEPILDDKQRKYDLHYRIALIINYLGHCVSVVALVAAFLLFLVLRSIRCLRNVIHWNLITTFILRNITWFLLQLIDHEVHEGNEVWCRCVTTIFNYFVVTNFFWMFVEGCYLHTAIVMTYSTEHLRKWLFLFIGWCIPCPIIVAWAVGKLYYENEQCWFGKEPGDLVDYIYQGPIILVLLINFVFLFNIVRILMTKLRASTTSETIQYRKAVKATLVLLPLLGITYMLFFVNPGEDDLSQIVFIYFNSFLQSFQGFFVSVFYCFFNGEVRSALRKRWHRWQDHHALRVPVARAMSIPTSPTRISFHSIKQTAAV
Compound,EC50 [1],EC50 [2],"relative potency at stimulating cAMP, rat CRF2α receptor [3]",EC50 [4],cAMP accumulation in cells transfected with the CRF1 receptor [4]
N=C(N)NCCC[C@H](NC(=O)[C@@H]1CCCN1C(=O)[C@@H]1CSSC[C@H](N)C(=O)N[C@@H](Cc2ccc(O)cc2)C(=O)N[C@@H](Cc2ccccc2)C(=O)N[C@@H](CCC(N)=O)C(=O)N[C@@H](CC(N)=O)C(=O)N1)C(=O)NCC(N)=O [AVP],> 1000 nM,–,–,–,–
CC[C@H](C)[C@H](NC(=O)[C@@H](NC(=O)[C@H](CC(=O)O)NC(=O)[C@H](CC(C)C)NC(=O)[C@H](CC(C)C)NC(=O)[C@H](CC(C)C)NC(=O)[C@H](CCCNC(=N)N)NC(=O)[C@H](CC(N)=O)NC(=O)[C@H](CC(N)=O)NC(=O)[C@H](C)NC(=O)[C@H](C)NC(=O)[C@H](CCC(N)=O)NC(=O)[C@H](CCC(N)=O)NC(=O)[C@H](CCCCN)NC(=O)[C@H](CCC(=O)O)NC(=O)[C@H](CCCCN)NC(=O)[C@H](CCC(=O)O)NC(=O)[C@H](CCC(N)=O)NC(=O)[C@H](CCCCN)NC(=O)[C@H](CCC(=O)O)NC(=O)[C@@H](NC(=O)[C@H](CCC(=O)O)NC(=O)[C@@H](NC(=O)[C@H](CCSC)NC(=O)[C@H](CCCCN)NC(=O)[C@H](CCCNC(=N)N)NC(=O)[C@H](CC(C)C)NC(=O)[C@H](CC(C)C)NC(=O)[C@H](CCC(=O)O)NC(=O)[C@H](CC(C)C)NC(=O)[C@H](CO)NC(=O)[C@H](CC(C)C)NC(=O)[C@H](CC(=O)O)NC(=O)[C@@H](NC(=O)[C@H](CO)NC(=O)[C@@H](NC(=O)[C@@H]1CCCN1C(=O)[C@@H]1CCCN1C(=O)CNC(=O)[C@@H]1CCC(=O)N1)[C@@H](C)CC)[C@@H](C)CC)[C@@H](C)CC)[C@@H](C)CC)[C@@H](C)O)C(N)=O [Sauvagine],0.5 nM,0.4 nM,more potent than either oCRF or r/hCRF,–,–
CC[C@H](C)[C@H](NC(=O)[C@H](CO)NC(=O)[C@H](CC(N)=O)NC(=O)[C@H](CC(C)C)NC(=O)[C@H](Cc1ccc(O)cc1)NC(=O)[C@H](CCCCN)NC(=O)[C@H](CCCCN)NC(=O)[C@@H](NC(=O)[C@H](C)NC(=O)[C@H](CCSC)NC(=O)[C@H](CCC(N)=O)NC(=O)[C@H](CCCCN)NC(=O)[C@H](CCCNC(=N)N)NC(=O)[C@H](CC(C)C)NC(=O)[C@H](CCCNC(=N)N)NC(=O)[C@@H](NC(=O)[C@H](Cc1ccc(O)cc1)NC(=O)[C@H](CC(N)=O)NC(=O)[C@H](CC(=O)O)NC(=O)[C@@H](NC(=O)[C@H](Cc1ccccc1)NC(=O)[C@@H](NC(=O)[C@H](C)NC(=O)[C@H](CC(=O)O)NC(=O)[C@H](CO)NC(=O)[C@@H](N)Cc1c[nH]cn1)C(C)C)[C@@H](C)O)[C@@H](C)O)C(C)C)C(=O)N[C@@H](CC(C)C)C(=O)N[C@@H](CC(N)=O)C(N)=O [VIP],> 1000 nM,–,–,–,–
CC[C@H](C)[C@H](NC(=O)[C@H](C)NC(=O)[C@H](CC(=O)O)NC(=O)[C@H](C)NC(=O)[C@@H](N)Cc1ccc(O)cc1)C(=O)N[C@@H](Cc1ccccc1)C(=O)N[C@H](C(=O)N[C@@H](CC(N)=O)C(=O)N[C@@H](CO)C(=O)N[C@@H](Cc1ccc(O)cc1)C(=O)N[C@@H](CCCNC(=N)N)C(=O)N[C@@H](CCCCN)C(=O)N[C@H](C(=O)N[C@@H](CC(C)C)C(=O)NCC(=O)N[C@@H](CCC(N)=O)C(=O)N[C@@H](CC(C)C)C(=O)N[C@@H](CO)C(=O)N[C@@H](C)C(=O)N[C@@H](CCCNC(=N)N)C(=O)N[C@@H](CCCCN)C(=O)N[C@@H](CC(C)C)C(=O)N[C@@H](CC(C)C)C(=O)N[C@@H](CCC(N)=O)C(=O)N[C@@H](CC(=O)O)C(=O)N[C@H](C(=O)N[C@@H](CCSC)C(=O)N[C@@H](CO)C(=O)N[C@@H](CCCNC(=N)N)C(=O)N[C@@H](CCC(N)=O)C(=O)N[C@@H](CCC(N)=O)C(=O)NCC(=O)N[C@@H](CCC(=O)O)C(=O)N[C@@H](CO)C(=O)N[C@@H](CC(N)=O)C(=O)N[C@@H](CCC(N)=O)C(=O)N[C@@H](CCC(=O)O)C(=O)N[C@@H](CCCNC(=N)N)C(=O)NCC(=O)N[C@@H](C)C(=O)N[C@@H](CCCNC(=N)N)C(=O)N[C@@H](C)C(=O)N[C@@H](CCCNC(=N)N)C(=O)N[C@@H](CC(C)C)C(N)=O)[C@@H](C)CC)C(C)C)[C@@H](C)O [hGRF],> 1000 nM,–,–,> 1000 nM,–
DLTFHLLREMLEMAKAEQEAEQAALNRLLLEEA-NH2 (C-terminus assumed) [α-helical oCRF(9-41)],> 1000 nM,–,–,–,–
ISLDLTFHLLREVLEMARAEQLAQQAHS [r/hCRF(6-33)],> 1000 nM,–,–,> 1000 nM,–
NDDPPISIDLTFHLLRNMIEMARIENEREQAGLNRKYLDEV-NH2 (C-terminus assumed) [Urotensin I],2 nM,–,more potent than either oCRF or r/hCRF,–,dose-dependent increase in cAMP
d-Phe r/hCRF(12-41): CRF receptor antagonist peptide,> 1000 nM,–,–,> 1000 nM,–
oCRF,80 nM,–,–,–,dose-dependent increase in cAMP
